Like-named read-outs stand apart in the source and are kept apart here. Bridge positions count the residues as written; N and C are the ends. Square brackets hold non-standard residues; d marks the D form. Triazole bridges read from a SMILES are 1,4-linked. Peptide text beside a SMILES is read from it. * marks the point of attachment. ξ: configuration not given here. X2 = O=C(CCCC[C@@H]1SC[C@@H]2NC(=O)N[C@@H]21)NCCCOCCOCCOCCCN*; X1 = O=C(CCCCC1SC[C@H]2NC(=O)N[C@@H]12)NCCCOCCOCCOCCCN*; Biotin = O=C1N[C@H]2[C@H](CS[C@H]2CCCCC(=O)*)N1; Lys(N3) = [N-]=[N+]=NCCCC[C@H](N)C(=O)O; Thr(3ξ) = CC(O)[C@H](N)C(=O)O; AEEEA = NCCOCCOCCOCC(=O)O; Pra = C#CC[C@H](N)C(=O)O
Tests used:
[1] = system: full-length His-tagged IL-17F and IL-17A proteins; test: Point ELISA (IL-17F vs. IL-17A selectivity assay); format: binding, human; conditions: figure legends FIG. 2B, 4B, 4C
Experimental: Point ELISA (IL-17F vs. IL-17A selectivity assay). A black 96-well NeutrAvidin Coated High Binding Capacity plate (15510, Pierce) was coated with 2 μM macrocyclic peptide ligand in TBS (pH 7.6) for 2 h at room temperature. The plate was aspirated and then washed with TBS (5×) and Wash Buffer (0.05% (v/v) Tween-20 in PBS, 1×). Full-length His-tagged IL-17F (ab167911, Abcam) and IL-17A (ab166882, Abcam) proteins were prepared at 200 and 50 nM in Wash Buffer and incubated in the designated microwells for 90 min at room temperature. Microwells were aspirated and subsequently washed with Wash Buffer (10×). To detect the bound IL-17F and IL-17A proteins, Alkaline Phosphatase (AP)-conjugated Anti-6×His Tag® antibody [HIS-1] (ab49746, Abcam) was prepared at 1:10,000 dilution and added to the microwells for 1 h at room temperature. The plate was aspirated and washed with Wash Buffer (5×). AttoPhos® AP Fluorescent Substrate System (S1000, Promega) was employed to develop the microwells. Using an excitation wavelength of 430 nm, fluorescent emission at 535 nm was recorded by Beckman Coulter DTX880 photometer.
(§1) For these assays, the full-length His-tagged IL-17F and IL-17A proteins were captured using the macrocyclic peptide ligands immobilized on a NeutrAvidin-coated plate.
Point ELISA (IL-17F vs. IL-17A selectivity assay). A black 96-well NeutrAvidin Coated High Binding Capacity plate (15510, Pierce) was coated with 2 μM macrocyclic peptide ligand in TBS (pH 7.6) for 2 h at room temperature. Biotinylated monoclonal anti-IL17F (TA319597, Origene) was coated at 4 μg/mL in TBS as a control. The plate was aspirated and then washed with TBS (5×) and Wash Buffer (0.05% (v/v) Tween-20 in PBS, 1×). Full-length His-tagged IL-17F (ab167911, Abcam) and IL-17A (ab166882, Abcam) proteins were prepared at 100 nM in Wash Buffer and incubated in the designated microwells for 90 min at room temperature. Microwells were aspirated and subsequently washed with Wash Buffer (10×). To detect the bound IL-17F and IL-17A proteins, Alkaline Phosphatase (AP)-conjugated Anti-6×His Tag® antibody [HIS-1] (ab49746, Abcam) was prepared at 1:10,000 dilution and added to the microwells for 1 h at room temperature. The plate was aspirated and washed with Wash Buffer (5×). AttoPhos® AP Fluorescent Substrate System (S1000, Promega) was employed to develop the microwells. Using an excitation wavelength of 430 nm, fluorescent emission at 535 nm was recorded by Beckman Coulter DTX880 photometer.
as §1

[2] = system: His-tagged IL-17F epitopes; test: Assay to determine orientation of macrocycle binding to IL-17F Epitope1 (point ELISA); conditions: for binding to epitope scrambled N-terminal to the click handle: epitope 2 μM, no-epitope background subtracted; for binding to the His-tagged IL-17F epitopes (overall, preferred sequence): three His-tagged epitopes, 2 μM
Experimental: Assay to determine orientation of macrocycle binding to IL-17F Epitope1. A black 96-well NeutrAvidin Coated High Binding Capacity plate (15510, Pierce) was coated with 2 μM macrocyclic peptide ligand in TBS (pH 7.6) for 2 h at room temperature. Biotinylated monoclonal anti-IL17F (TA319597, Origene) was coated at 4 μg/mL in TBS as a control. The plate was aspirated and then washed with TBS (5×) and Wash Buffer (0.05% (v/v) Tween-20 in PBS, 1×). Chemically synthesized His-tagged IL-17F epitopes were prepared at 2 μM in Wash Buffer and incubated in the designated microwells for 90 min at room temperature. Wash Buffer without epitope was added as a control. Microwells were aspirated and subsequently washed with Wash Buffer (10×). To detect the bound IL-17F epitopes, Alkaline Phosphatase (AP)-conjugated Anti-6×His Tag® antibody [HIS-1] (ab49746, Abcam) was prepared at 1:10,000 dilution and added to the microwells for 1 h at room temperature. The plate was aspirated and washed with Wash Buffer (5×). AttoPhos® AP Fluorescent Substrate System (S1000, Promega) was employed to develop the microwells. Using an excitation wavelength of 430 nm, fluorescent emission at 535 nm was recorded by Beckman Coulter DTX880 photometer. Data are shown after subtraction of the no-epitope background.
For this experiment, the IL-17F Epitope1 was re-synthesized with a His6 assay handle and C48S substitution instead of a click handle. Two additional His-tagged IL-17F epitopes were synthesized to contain strategic scrambling of the sequences either N-terminal or C-terminal to C48S. Point ELISAs for the three His-tagged IL-17F epitopes were conducted against the immobilized macrocyclic peptide ligands.

IL-17F [3] = target: T1, IL-17F (Homo sapiens, UniProt Q96PD4); test: KD of PCC macrocycles and biligands against IL-17F (FIG. 12C); format: binding
T1 sequence (Q96PD4 31-163): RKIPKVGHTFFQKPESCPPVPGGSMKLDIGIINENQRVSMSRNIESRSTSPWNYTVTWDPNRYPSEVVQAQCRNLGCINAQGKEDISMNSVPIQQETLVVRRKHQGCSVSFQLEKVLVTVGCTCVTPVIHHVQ

IL-17F [4] = target: T1, IL-17F; test: Sandwich ELISA: immobilized macrocyclic peptide ligand captures full-length His-tagged IL-17F; format: binding; design: Full-length His-tagged IL-17F protein (ab167911, Abcam); purchased Abcam ab167911
Experimental: Sandwich ELISA. A black 96-well NeutrAvidin Coated High Binding Capacity plate (15510, Pierce) was coated with 2 μM macrocyclic peptide ligand in TBS (25 mM Tris-HCl, 150 mM NaCl, pH 7.6) for 2 h at room temperature. Biotinylated monoclonal anti-IL17F (TA319597, Origene) was coated at 4 μg/mL in TBS as a control. The plate was aspirated and then washed with TBS (5×) and Wash Buffer (0.05% (v/v) Tween-20 in PBS, 1×). Full-length His-tagged IL-17F protein (ab167911, Abcam) was serially diluted in Wash Buffer (from 800 to 0 nM) and incubated in the designated microwells for 90 min at room temperature. Microwells were aspirated and subsequently washed with Wash Buffer (10×). […] (ab49746, Abcam) was prepared at 1:10,000 dilution and added to the microwells for 1 h at room temperature. The plate was aspirated and washed with Wash Buffer (5×). AttoPhos® AP Fluorescent Substrate System (S1000, Promega) was employed to develop the microwells. Using an excitation wavelength of 430 nm, fluorescent emission at 535 nm was recorded by Beckman Coulter DTX880 photometer. Titration curves were fit using a four-parameter regression curve fitting program (Origin 8.5) to determine EC50 values.
For these assays, a dilution series of full-length His-tagged IL-17F protein was captured using the macrocyclic peptide ligands immobilized on a NeutrAvidin-coated plate.
Sandwich ELISA. […]

[5] = target: Plasmodium falciparum Histidine Rich Protein-2 (Pf.HRP-2) (Plasmodium falciparum, UniProt P05227); format: binding

NCCCC[C@@H]1NC(=O)[C@H](CCCCN)NC(=O)[C@@H](NC(=O)COCCOCCOCCNC(=O)CCCC[C@@H]2SC[C@@H]3NC(=O)N[C@@H]32)Cc2cn(nn2)CCCC[C@@H](C(N)=O)NC(=O)[C@@H]2CCCN2C(=O)[C@H](Cc2c[nH]c3ccccc23)NC(=O)CNC1=O [Cy(KKGWP), Biotin-PEG3-Cy(KKGWP) (SEQ ID NO:23)] ({Biotin-AEEEA}-[Pra]KKGWP[Lys(N3)]-NH2; triazole 1-7)
preferential binding, IL-17F vs IL-17A (in words) [1]: preferential binding to IL-17F

NCCCC[C@@H]1NC(=O)[C@H](CCC(N)=O)NC(=O)[C@@H](N)Cc2cn(nn2)CCCC[C@@H](C(=O)NCCCOCCOCCOCCCNC(=O)CCCC[C@@H]2SC[C@@H]3NC(=O)N[C@@H]32)NC(=O)[C@@H]2CCCN2C(=O)CNC(=O)[C@H](Cc2c[nH]cn2)NC1=O [Cy(QKHGP), Cy(QKHGP) (SEQ ID NO:15)-PEG3-biotin] (H-[Pra]QKHGP[Lys(N3)]-X2; triazole 1-7)
preferential binding, IL-17F vs IL-17A (in words) [1]: preferential binding to IL-17F
preferential binding, IL-17F vs IL-17A (in words) ([1]; listed as QKHGP): preferential binding to IL-17F or IL-17A

C[C@@H]1NC(=O)[C@H](CCCNC(=N)N)NC(=O)[C@H](CCCNC(=N)N)NC(=O)[C@@H](N)Cc2cn(nn2)CCCC[C@@H](C(=O)NCCCOCCOCCOCCCNC(=O)CCCCC2SC[C@H]3NC(=O)N[C@@H]23)NC(=O)[C@H](CO)NC(=O)[C@H](CCC(N)=O)NC1=O (stereo partly shown) [Cy(RRAQS), Cy(RRAQS) (SEQ ID NO:10)-PEG3-biotin] (H-[Pra]RRAQS[Lys(N3)]-X1; triazole 1-7)
preferential binding, IL-17F vs IL-17A (in words) [1]: preferential binding to IL-17F
binding to epitope scrambled N-terminal to the click handle [2]: Binding was destroyed
binding to the His-tagged IL-17F epitopes (overall, preferred sequence) [2]: preferential binding to the sequence FFQKPES

CC(O)[C@@H]1NC(=O)[C@H](C)NC(=O)[C@H](CCCNC(=N)N)NC(=O)[C@H](CCCNC(=N)N)NC(=O)[C@@H](N)Cc2cn(nn2)CCCC[C@@H](C(=O)NCCCOCCOCCOCCCNC(=O)CCCCC2SC[C@H]3NC(=O)N[C@@H]23)NC(=O)[C@H](CO)NC1=O (stereo partly shown) [Cy(RRATS), Cy(RRATS) (SEQ ID NO:9)-PEG3-biotin] (H-[Pra]RRA[Thr(3ξ)]S[Lys(N3)]-X1; triazole 1-7)
preferential binding, IL-17F vs IL-17A (in words) [1]: preferential binding to IL-17F
preferential binding, IL-17F vs IL-17A (in words) ([1]; listed as RRATS): preferential binding to IL-17F or IL-17A
binding to epitope scrambled N-terminal to the click handle [2]: Binding was destroyed
binding to the His-tagged IL-17F epitopes (overall, preferred sequence) [2]: preferential binding to the sequence FFQKPES

CC1N[C@@H](CCCCN)C(=O)N[C@H](C(N)=O)CCCCn2cc(nn2)C[C@H](NC(=O)COCCOCCOCCNC(=O)CCCC[C@@H]2SC[C@@H]3NC(=O)N[C@@H]32)C(=O)N[C@@H](CCCNC(=N)N)C(=O)N[C@@H](CO)C(=O)N[C@@H](Cc2ccc(O)cc2)C(=O)N[C@H]1CC(N)=O (stereo partly shown) [Cy(RSYNK), Biotin-PEG3-Cy(RSYNK) (SEQ ID NO:28)]
preferential binding, IL-17F vs IL-17A (in words) [1]: preferential binding to IL-17F
preferential binding, IL-17F vs IL-17A (in words) ([1]; listed as RSYNK): preferential binding to IL-17F or IL-17A
Kd (IL-17F [3]; read-out: KD against IL-17F): 15 nM
EC50 (IL-17F [4]; 2 μM PEG3-biotin ligand on NeutrAvidin plate, His-tagged IL-17F 800 to 0 nM): 15 ± 5 nM
binding affinity compared in words (ligand vs biotinylated monoclonal anti-IL17F) (IL-17F [4]; antibody coated at 4 μg/mL): exceeds the binding affinity of the similarly assayed biotinylated monoclonal anti-IL17F

C[C@@H]1NC(=O)[C@H](CCCNC(=N)N)NC(=O)[C@H](CCCNC(=N)N)NC(=O)[C@@H](NC(=O)COCCOCCOCCNC(=O)[C@@H]2CCCCn3cc(nn3)C[C@H](NC(=O)COCCOCCOCCNC(=O)CCCC[C@@H]3SC[C@@H]4NC(=O)N[C@@H]43)C(=O)N[C@@H](CCCNC(=N)N)C(=O)N[C@@H](CO)C(=O)N[C@@H](Cc3ccc(O)cc3)C(=O)N[C@@H](CC(N)=O)C(=O)N[C@@H](CCCCN)C(=O)N2)Cc2cn(nn2)CCCC[C@@H](C(N)=O)NC(=O)[C@H](CO)NC(=O)[C@H]([C@@H](C)O)NC1=O [Cy(RSYNK)-PEG3-Cy(RRATS), Biotin-PEG3-Cy(RSYNK) (SEQ ID NO:28)-PEG3-Cy(RRATS) (SEQ ID NO: 9)] ({Biotin-AEEEA}-[Pra]RSYNK[Lys(N3)][AEEEA][Pra]RRATS[Lys(N3)]-NH2; triazole 1-7, 9-15)
Kd (IL-17F [3]): 0.25 nM
improvement in affinity relative to the individual PCC macrocyclic ligands (IL-17F [3]): > 100 fold

C[C@@H](O)[C@@H]1NC(=O)[C@@H](N)Cc2cn(nn2)CCCC[C@@H](C(=O)NCCCOCCOCCOCCCNC(=O)CCCC[C@@H]2SC[C@@H]3NC(=O)N[C@@H]32)NC(=O)[C@@H]2CCCN2C(=O)CNC(=O)[C@H](Cc2c[nH]cn2)NC(=O)[C@H](CCCCN)NC1=O [Cy(TKHGP), Cy(TKHGP) (SEQ ID NO:16)-PEG3-biotin] (H-[Pra]TKHGP[Lys(N3)]-X2; triazole 1-7)
preferential binding, IL-17F vs IL-17A (in words) [1]: preferential binding to IL-17F

N=C(N)NCCC[C@@H]1NC(=O)[C@H](Cc2ccc(O)cc2)NC(=O)[C@H](Cc2ccc(O)cc2)NC(=O)[C@H](CCCCN)NC(=O)[C@H](Cc2ccc(O)cc2)NC(=O)[C@@H](N)Cc2cn(nn2)CCCC[C@@H](C(N)=O)NC1=O [Cy(YKYYR), Cy(YKYYR) (SEQ ID NO:29)] (H-[Pra]YKYYR[Lys(N3)]-NH2; triazole 1-7)
EC50 [5]: 220 nM
